From patent US20230107216A1, “PANTETHEINE DERIVATIVES AND USES THEREOF” (Comet Therapeutics, Inc., priority 2018, published 2023)
Like-named read-outs stand apart in the source and are kept apart here.

Columns and labels:
[1] = system: Keratinocytes co-cultured with dermal fibroblast (KF3CT system); test: BioMAP KF3CT system (IL-1β, TNFα, IFNγ, TGFβ); format: cell-based, human; conditions: for % increase in MCP-1: procedure of Example 834
Description: The BioMAP platform (BioMAP® Diversity PLUS® Panel from Eurofins) is an in vitro phenotypic profiling technology that screened the compounds of the present disclosure (hereafter indicated as test agents) in human primary cell-based systems modelling complex tissue and disease states. The BioMAP assays were performed using the Eurofin's BioMAP Technology Platform as (see references 1 to 13 in the example 824 section) to model different diseases on primary cell-based model systems. These systems consisted of either single primary cell types or co-culture cells. Adherent cell types were cultured or co-cultured in 96 or 384-well plates until confluence followed by the addition of compounds prepared in DMSO at a final concentration of ≤0.1%. In each cell-based system, primary cells from heathy donors (2-6 donors) were pooled and treated with compounds at 1 and 10 μM dose 1h prior to stimulation and remain in culture as indicated in Example 825, Example 826, Example 827, Example 828, Example 829, Example 830, Example 831, Example 832, Example 833, Example 834, Example 835, Example 836 and Example 837. For on the BioMAP® Diversity PLUS® Panel, please see the following references, which are incorporate herein.
Following the general procedure as described in Example 824, Keratinocytes were co-cultured with dermal fibroblast (KF3CT system) and treated with IL-1β, TNFα, IFNγ and TGFβ for 24h in the presence or absence of the compounds to model psoriasis, dermatitis and skin biology. Biomarkers read out were; MCP-1, ICAM-1, IP-10, IL-8, MIG, IL-1α, MMP-9, PAI-1, SRB, TIMP-2, uPA.

[2] = system: Leigh Syndrome (LS) primary fibroblasts GM03672; test: NADP+/NADPH (NADP/NADPH-Glo), Leigh fibroblasts GM03672; format: cell-based; conditions: Homo sapiens, Fibroblast, 24h, read-out: Increase in Total NADP+ + NADPH
Description: Primary adherent fibroblasts were cultured in minimum essential medium (MEM) (Gibco, 25030081) supplemented with 2 mM L-Glutamine (Gibco, 25030081), 15% fetal bovine serum (FBS) (Gibco, 26400044) and 1% penicillin/streptomycin (Gibco, 5140122) at 37° C. and 5% CO2. Cells were collected for either passaging or experiment at ˜70-80% confluence. Cells were obtained by trypsinization and seeded in cell culture microplates either white plate (Thermo Fisher Scientific, 152028) for luminescent measurement or black plate (Thermo Fisher Scientific, 165305) for fluorescent based read out for different assays listed below. Cells were obtained by trypsinization and […] were seeded and allowed to adhere for 16-18 hours to have confluency around 70-80% in the cell well with culture media. After 24 hours prior to measurements (37° C., 5% CO2) media was changed to Dulbecco's Modified Eagle Medium (DMEM, Agilent Seahorse cat #103575-100) with the appropriate supplements as stated below.
Primary fibroblasts assayed were Propionic Acidemia (PA) (GM03590 Coriell Institute for Medical Research, Tsi 6337 Trans-Hit Bio), Methylmalonic Acidemia (MMA) (Tsi 5224 Trans-Hit Bio), Subnormal activation of pyruvate dehydrogenase complex (PDH) (GM01503 Coriell Institute for Medical Research), Very long-chain acyl-CoA dehydrogenase (VLCAD) (GM17475), Leigh Syndrome (LS) (GM03672, GM13411 Coriell Institute for Medical Research), Pyruvate Carboxylase Deficiency (PC) (GM00444 Coriell Institute for Medical Research). 10 μM of Compounds were added for 2 hours in PA, MMA lines and for 24h for the other fibroblast lines.
Assay was performed according to manufacturer instructions (NADP+/NADPH-Glo Assay Promega, G9082). Assay required a plate for total measurement of NADP+/NADPH and a plate for individual measurement of NADP+ or NADPH. For every assay a 12-point standard curve is prepared ranging from 400 nM to 0.625 nM. Media is removed and replaced with 50 μl of PBS for both assays.
For individual NADP+/NADPH measurements, 50 μl of 1% DTAB (Sigma, D5047) (cell lysis reagent) in 0.2N NaOH was added to the plates and 100 μl of lysate was split into two plates with 50 μl each from which ratio of NADP/NADPH can be calculated. 25 μl of 0.4N HCl were added to the NADP+ plates and both NADP+ and NADPH plates were heated at 60° C. for 15 minutes. The acid and heat treatment destroyed NADPH allowing individual NADP+ measurements while heating in basic conditions destroys NADP+ allowing individual NADPH measurement. After 15 minutes plates were allowed to come to room temperature and Trizma base (Sigma, T1699) was added to the NADP+ plates to neutralize the acid and HCl Trizma hydrochloride (Sigma, T2694) was added to the NADPH plates. The NADNADPH glo reagent was prepared by adding 125 μl of NAD cycling substrate, 125 μl of reductase, 125 μl of reductase substrate, 125 μl NAD cycling enzyme to a total of the 25 ml of NAD GLO reagent. 1:1 ratio of total volume of reagent was added to the individual NADP+, NADPH measurements (total 100 μl) and 50 μl were added for the total NAD/NADPH measurements. Luminescence was measured for 30-60 minutes within the linear range.
A total dead cell count was performed as described in Example 817 and only alive cells were used for analysis.

[3] = Leigh GM03672 P9, assay condition A (10 mM glucose, 2 mM L-glutamine, 1 mM pyruvate, 10% FBS)
[4] = Leigh GM03672 P8, assay condition B (1 mM glucose, 2 mM L-glutamine, 1 mM pyruvate, 10% FBS)

**Q.** Which results are given for COC(=O)CCC(=O)SCCNC(=O)CCNC(=O)[C@H](OC(=O)CN)C(C)(C)CO [Compound 1294, methyl 4-[(2-[3-[(2R)-2-[(2-aminoacetyl)oxy]-4-hydroxy-3,3-dimethylbutanamido]propanamido]ethyl)sulfanyl]-4-oxobutanoate]?
**A.** % decrease in MMP-9 ([1]; 1 uM): ≥10%; % increase in IL-1α ([1]; 10 uM): ≥10%; activation at 10 µM [2, 3]: ≥ 10%

**Q.** How did the activation at 10 µM [2, 4] turn out when COC(=O)CC(C(C)=O)C(=O)SCCNC(=O)CCNC(=O)[C@H](O)C(C)(C)CO (stereo partly shown) [Compound 410] was run?
**A.** ≥ 10%

**Q.** How did the activation at 10 µM [2, 4] turn out when CC(C)(CO)[C@@H](O)C(=O)NCCC(=O)NCCSC(=O)CC(=O)CCC(=O)O [Compound 2, 6-[(2-[3-[(2R)-2,4-dihydroxy-3,3-dimethylbutanamido]propanamido]ethyl)sulfanyl]-4,6-dioxohexanoic acid] was run?
**A.** ≥ 10%

**Q.** CC(=O)OCC(C)(C)[C@@H](O)C(=O)NCCC(=O)NCCSC(=O)CC(=O)CCC(=O)O [Compound 140, 6-[(2-[3-[(2R)-4-(acetyloxy)-2-hydroxy-3,3-dimethylbutanamido]propanamido]ethyl)sulfanyl]-4,6-dioxohexanoic acid] was tested. Which activation at 10 µM [2, 4] did it give?
**A.** ≥ 10%

**Q.** Which “% decrease in IL-1a” value ([1]; 1 uM) does the source give for CC(=O)OCC(C)(C)[C@@H](OC(C)=O)C(=O)NCCC(=O)NCCSC(C)=O [Compound 1264, (1R)-3-(acetyloxy)-1-[(2-[[2-(acetylsulfanyl)ethyl]carbamoyl]ethyl)carbamoyl]-2,2-dimethylpropyl acetate] here?
**A.** ≥10%

**Q.** What about the “% increase in MCP-1” value ([1]; 1 uM) of the same compound?
**A.** ≥10%

**Q.** C[C@H](O)CC(=O)CC(=O)SCCNC(=O)CCNC(=O)[C@H](O)C(C)(C)CO [Compound 1306, (2R)-2,4-dihydroxy-N-[2-[(2-[[(5S)-5-hydroxy-3-oxohexanoyl]sulfanyl]ethyl)carbamoyl]ethyl]-3,3-dimethylbutanamide] was tested. Which activation at 10 µM [2, 4] did it give?
**A.** ≥ 10%

**Q.** COC(=O)CCC(=O)SCCNC(=O)CCNC(=O)[C@H](OC(=O)CNC(C)=O)C(C)(C)CO [Compound 1298, methyl 4-[(2-[3-[(2R)-2-[(2-acetamidoacetyl)oxy]-4-hydroxy-3,3-dimethylbutanamido]propanamido]ethyl)sulfanyl]-4-oxobutanoate] was tested. Which activation at 10 µM [2, 3] did it give?
**A.** ≥ 10%

**Q.** What does the source list for CC(C)(CO)[C@@H](O)C(=O)NCCC(=O)NCCSC(=O)[C@@H](N)Cc1ccc(O)c(O)c1 [Compound 371, (2R)—N-[2-[(2-[[(2S)-2-amino-3-(3,4-dihydroxyphenyl)propanoyl]sulfanyl]ethyl)carbamoyl]ethyl]-2,4-dihydroxy-3,3-dimethylbutanamide]?
**A.** % increase in MMP-9 ([1]; 1 uM): ≥10%; % increase in MCP-1 ([1]; 1 uM): ≥10%

**Q.** Which results are given for CC(=O)SCCNC(=O)CCNC(=O)[C@H](O)C(C)(C)COC(=O)[C@@H](N)Cc1ccc(O)c(O)c1 [Compound 498, (3R)-3-[(2-[[2-(acetylsulfanyl)ethyl]carbamoyl]ethyl)carbamoyl]-3-hydroxy-2,2-dimethylpropyl (2S)-2-amino-3-(3,4-dihydroxyphenyl)propanoate]?
**A.** % increase in MCP-1 ([1]; 1 uM): ≥10%; % increase in TIMP-2 ([1]; 10 uM): ≥10%

**Q.** C[C@@H](O)CC(=O)CC(=O)SCCNC(=O)CCNC(=O)[C@H](O)C(C)(C)CO [Compound 42, (2R)-2,4-dihydroxy-N-[2-[(2-[[(5R)-5-hydroxy-3-oxohexanoyl]sulfanyl]ethyl)carbamoyl]ethyl]-3,3-dimethylbutanamide] was tested. Which “% increase in MCP-1” value ([1]; 10 uM) did it give?
**A.** ≥10%

**Q.** COC(=O)CCC(=O)SCCNC(=O)CCNC(=O)[C@H](O)C(C)(C)COC(C)=O [Compound 138] was tested. Which “% increase in SRB” value ([1]; 10 uM) did it give?
**A.** ≥10%
